# Assay results: PubChem BioAssay (NCI)
#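 Cultured in 96-well plates, cells were exposed to test compound for 48 hours across five concentrations. Abbreviation: GI50, concentration required for 50% inhibition of growth. At the TGI there is no net growth.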
# Key:
# Test in all cases: NCI anticancer screen, dose series, 48 h
# SF-295 CNS = system: SF-295 CNS
# IGROV1 ovarian = system: IGROV1 ovarian
# SNB-19 CNS = system: SNB-19 CNS
# EKVX NSCLC = system: EKVX NSCLC
# COLO 205 colon = system: COLO 205 colon
# LOX IMVI melanoma = system: LOX IMVI melanoma
# SK-MEL-2 melanoma = system: SK-MEL-2 melanoma
# ACHN renal = system: ACHN renal
# HS 578T breast = system: HS 578T breast
# SW-620 colon = system: SW-620 colon
# KM12 colon = system: KM12 colon
# SF-268 CNS = system: SF-268 CNS
# NCI/ADR-RES ovarian = system: NCI/ADR-RES ovarian
# HCT-116 colon = system: HCT-116 colon
# HT29 colon = system: HT29 colon
# MCF7 breast = system: MCF7 breast
# SF-539 CNS = system: SF-539 CNS
# U251 CNS = system: U251 CNS
# MALME-3M melanoma = system: MALME-3M melanoma
# SK-MEL-5 melanoma = system: SK-MEL-5 melanoma
# OVCAR-5 ovarian = system: OVCAR-5 ovarian
# M14 melanoma = system: M14 melanoma
# HCT-15 colon = system: HCT-15 colon
# MDA-MB-231 breast = system: MDA-MB-231 breast
# UO-31 renal = system: UO-31 renal
# HOP-92 NSCLC = system: HOP-92 NSCLC
# DU-145 prostate = system: DU-145 prostate
# RPMI-8226 leukemia = system: RPMI-8226 leukemia
# MDA-MB-435 = system: MDA-MB-435
# SR leukemia = system: SR leukemia
# UACC-257 melanoma = system: UACC-257 melanoma
# 786-0 renal = system: 786-0 renal
# UACC-62 melanoma = system: UACC-62 melanoma
# HCC-2998 colon = system: HCC-2998 colon
# MOLT-4 leukemia = system: MOLT-4 leukemia
# BT-549 breast = system: BT-549 breast
# SN12C renal = system: SN12C renal
# CCRF-CEM leukemia = system: CCRF-CEM leukemia
# SNB-75 CNS = system: SNB-75 CNS
# SK-MEL-28 melanoma = system: SK-MEL-28 melanoma
# A549 NSCLC = system: A549 NSCLC
# NCI-H226 lung = system: NCI-H226 lung
# T-47D breast = system: T-47D breast
# A498 renal = system: A498 renal
# CAKI-1 renal = system: CAKI-1 renal
# HOP-62 NSCLC = system: HOP-62 NSCLC
# TK-10 renal = system: TK-10 renal
# OVCAR-4 ovarian = system: OVCAR-4 ovarian
# K-562 leukemia = system: K-562 leukemia
# SK-OV-3 ovarian = system: SK-OV-3 ovarian
# PC-3 prostate = system: PC-3 prostate
# HL-60(TB) leukemia = system: HL-60(TB) leukemia
# NCI-H23 lung = system: NCI-H23 lung
# RXF 393 renal = system: RXF 393 renal
# NCI-H460 lung = system: NCI-H460 lung
# OVCAR-8 ovarian = system: OVCAR-8 ovarian
compound,measurement,setting,value
Oc1ccccc1-c1nnc(SCc2ccc(O)c3ncccc23)n1-c1ccccc1,GI50,SF-295 CNS,0.347 µM
same,TGI,SF-295 CNS,> 53.8 µM
same,GI50,IGROV1 ovarian,0.406 µM
same,TGI,IGROV1 ovarian,> 100 µM
same,GI50,SNB-19 CNS,0.378 µM
same,TGI,SNB-19 CNS,> 100 µM
same,GI50,EKVX NSCLC,0.437 µM
same,TGI,EKVX NSCLC,9.81 µM
same,GI50,COLO 205 colon,4.01 µM
same,TGI,COLO 205 colon,32 µM
same,GI50,LOX IMVI melanoma,0.35 µM
same,TGI,LOX IMVI melanoma,> 35.3 µM
same,GI50,SK-MEL-2 melanoma,0.361 µM
same,GI50,ACHN renal,0.331 µM
same,TGI,ACHN renal,26.3 µM
same,GI50,HS 578T breast,0.357 µM
same,TGI,HS 578T breast,> 100 µM
same,GI50,SW-620 colon,0.429 µM
same,TGI,SW-620 colon,> 100 µM
same,GI50,KM12 colon,0.485 µM
same,TGI,KM12 colon,> 75.3 µM
same,GI50,SF-268 CNS,0.475 µM
same,TGI,SF-268 CNS,> 100 µM
same,GI50,NCI/ADR-RES ovarian,0.279 µM
same,TGI,NCI/ADR-RES ovarian,> 100 µM
same,GI50,HCT-116 colon,0.325 µM
same,TGI,HCT-116 colon,> 100 µM
same,GI50,HT29 colon,3.62 µM
same,TGI,HT29 colon,> 51.4 µM
same,GI50,MCF7 breast,0.31 µM
same,TGI,MCF7 breast,> 100 µM
same,GI50,SF-539 CNS,0.438 µM
same,TGI,SF-539 CNS,13.7 µM
same,GI50,U251 CNS,0.363 µM
same,TGI,U251 CNS,> 100 µM
same,GI50,MALME-3M melanoma,0.806 µM
same,TGI,MALME-3M melanoma,7.89 µM
same,GI50,SK-MEL-5 melanoma,0.349 µM
same,TGI,SK-MEL-5 melanoma,1.53 µM
same,GI50,OVCAR-5 ovarian,2.11 µM
same,TGI,OVCAR-5 ovarian,> 100 µM
same,GI50,M14 melanoma,0.418 µM
same,GI50,HCT-15 colon,0.323 µM
same,TGI,HCT-15 colon,> 100 µM
same,GI50,MDA-MB-231 breast,0.432 µM
same,TGI,MDA-MB-231 breast,24.2 µM
same,GI50,UO-31 renal,0.291 µM
same,TGI,UO-31 renal,2.48 µM
same,GI50,HOP-92 NSCLC,0.106 µM
same,TGI,HOP-92 NSCLC,0.654 µM
same,GI50,DU-145 prostate,0.498 µM
same,TGI,DU-145 prostate,> 90.8 µM
same,GI50,RPMI-8226 leukemia,0.399 µM
same,TGI,RPMI-8226 leukemia,> 100 µM
same,GI50,MDA-MB-435,0.402 µM
same,TGI,MDA-MB-435,> 100 µM
same,GI50,SR leukemia,0.345 µM
same,TGI,SR leukemia,> 100 µM
same,GI50,UACC-257 melanoma,0.514 µM
same,TGI,UACC-257 melanoma,> 26.8 µM
same,GI50,786-0 renal,0.513 µM
same,TGI,786-0 renal,12 µM
same,GI50,UACC-62 melanoma,0.426 µM
same,TGI,UACC-62 melanoma,2.54 µM
same,GI50,HCC-2998 colon,0.552 µM
same,TGI,HCC-2998 colon,> 95.2 µM
same,GI50,MOLT-4 leukemia,0.434 µM
same,TGI,MOLT-4 leukemia,> 100 µM
same,GI50,BT-549 breast,0.494 µM
same,TGI,BT-549 breast,> 100 µM
same,GI50,SN12C renal,0.347 µM
same,TGI,SN12C renal,52.7 µM
same,GI50,CCRF-CEM leukemia,0.379 µM
same,TGI,CCRF-CEM leukemia,> 100 µM
same,GI50,SNB-75 CNS,0.416 µM
same,TGI,SNB-75 CNS,> 58.8 µM
same,GI50,SK-MEL-28 melanoma,0.543 µM
same,TGI,SK-MEL-28 melanoma,> 100 µM
same,GI50,A549 NSCLC,0.441 µM
same,TGI,A549 NSCLC,> 100 µM
same,GI50,NCI-H226 lung,1.77 µM
same,TGI,NCI-H226 lung,> 100 µM
same,GI50,T-47D breast,0.344 µM
same,TGI,T-47D breast,> 100 µM
same,GI50,A498 renal,1.85 µM
same,TGI,A498 renal,7.44 µM
same,GI50,CAKI-1 renal,0.382 µM
same,TGI,CAKI-1 renal,24.6 µM
same,GI50,HOP-62 NSCLC,0.377 µM
same,TGI,HOP-62 NSCLC,> 21 µM
same,GI50,TK-10 renal,0.417 µM
same,TGI,TK-10 renal,> 100 µM
same,GI50,OVCAR-4 ovarian,0.641 µM
same,TGI,OVCAR-4 ovarian,> 100 µM
same,GI50,K-562 leukemia,0.27 µM
same,TGI,K-562 leukemia,> 100 µM
same,GI50,SK-OV-3 ovarian,0.376 µM
same,TGI,SK-OV-3 ovarian,> 19.7 µM
same,GI50,PC-3 prostate,0.488 µM
same,TGI,PC-3 prostate,> 100 µM
same,GI50,HL-60(TB) leukemia,0.326 µM
same,TGI,HL-60(TB) leukemia,2.38 µM
same,GI50,NCI-H23 lung,0.412 µM
same,TGI,NCI-H23 lung,> 100 µM
same,GI50,RXF 393 renal,0.666 µM
same,TGI,RXF 393 renal,80.2 µM
same,GI50,NCI-H460 lung,0.372 µM
same,TGI,NCI-H460 lung,> 100 µM
same,GI50,OVCAR-8 ovarian,0.375 µM
same,TGI,OVCAR-8 ovarian,> 41.5 µM
